Experimental data from article PMC8162438, “Cancer cell-selective modulation of mitochondrial respiration and metabolism by potent organogold(III) dithiocarbamates” (Chemical Science, 2020).

System: MDA-MB-231
Assay: Mitochondrial membrane potential (JC-1)
Type: cell-based
Conditions: MDA-MB-231, 10 μM, 6 h, versus DMSO
Excerpt: Activated DEG included NDUFS7, [complex I], COX7A1 gene [complex IV], and ATP5O, ATP5I genes [complex V] whereas the inhibited DEG were MT-ND4L [complex I], SDHD gene [complex II], and ATP5C, ATP5F [complex V]. […] These findings prompted functional biology experiments to further corroborate the effect of 2a or its mechanism of action in TNBC. We examined the effect of 2a on mitochondrial membrane potential, assayed by JC-1 dye.[85] […] We used carbonyl cyanide m-chlorophenyl hydrazine (CCCP), an uncoupler, as a positive control to validate the experiment. The MMP is a key driving force in ATP synthesis and overall a key factor in maintaining redox homeostasis throughout the cell.[86] […]
text (Figure 5C). Samples 37 °C, NaN 3, methyl-β-cyclodextrin, and chlorpromazine hydrochloride were calculated using calibration curve Fig. S134 and samples wortmannin, genistein, and +4 °C were calculated using calibration curve Fig. S135. […]
Prior to analysis samples were required to pass three tests before library construction: 1) nanodrop for RNA purity (OD 260/OD280), 2) agarose gel electrophoresis for RNA integrity and potential contamination, and 3) Agilent 2100 check RNA integrity. […] After library construction, qPCR was used to accurately quantify the library effective concentration (> 2 nM), in order to ensure the library quality. […]

C[N+](C)=C1[S][Au-2]2([S]1)[c]1ccccc1Cc1cccc[n+]12.F[P-](F)(F)(F)(F)F (stereo not shown) [2a]
Mitochondrial membrane potential (JC-1): strong depolarization of the MMP
